For test [1], the system named is PBMCs from breast cancer patient OBCR25. In words: proliferation assay (3H-thymidine) with h5T4 class II peptide pools and peptides. Type of test: cell-based, human. The settings on record: PBMCs of breast cancer patient OBCR25, 6 days incubation, 3H-thymidine pulse overnight. The protocol: FIG. 1 is a schematic diagram illustrating the proliferation assay for measuring cellular responses
A h5T4 peptide library was produced consisting of 51 20 mer peptides overlapping by […]. Class II peptide pools containing 5 peptides per pool were incubated with PBMCs from breast cancer patients OBCR24 and OBCR25 and proliferation was measures using the assay illustrated in FIG. 1. After 6 days incubation, cells were pulsed overnight with ^3H-thymidine and incubated overnight at 37° C.

Another test deals with PBMCs from OBCR25. In words: IFNγ ELISPOT assay after restimulation in vitro with h5T4 peptides. The format is cell-based, human. The settings on record: PBMCs from OBCR25 restimulated in vitro with h5T4 peptides. As to the method:
FIG. 2 is a schematic diagram illustrating the ELISPOT assay for measuring antigen-specific IFNγ production.
To measure antigen-specific IFNγ production, an ELISPOT assay was conducted following the general scheme illustrated in FIG. 2.

For the sequence “YRYEINADPRLTNLSSNSDV (listed as Homo sapiens) [peptide #51, extreme C-terminal 20 amino acids (401-420) of h5T4; 20 mer peptide of pool #10]”, in test [1], the proliferative response entry is on record as “positive response”. The “IFNγ ELISPOT response” value in the test with PBMCs from OBCR25 is “positive ELISPOT response”.

(Values after patent US7910109B2, “MHC class II epitopes of 5T4 antigen” (Oxford Biomedica (UK) Ltd., priority 2002, dated 2011).)
